# Measured values taken from ChEMBL document CHEMBL1201862, “PubChem BioAssay data set” (2004).
# The source made the active and inactive calls.
# Key:
# [1] = Counterscreen for IDE inhibitors: Luminescence-based cell-based high throughput dose response assay to identify compounds that are cytotoxic to HEK cells. [Related pubchem assays: 434962 (Primary screen (IDE inhibitors in singlicate)), 449730 (Counterscreen (Cytotoxicity in triplicate)), 435028 (Confirmation (IDE inhibitors in triplicate)) …; format: functional; details: HEK293
# Insulin-degrading enzyme = molecular target: T1, Insulin-degrading enzyme (Homo sapiens, UniProt P14735); experiment: Dose Response: Fluorescence polarization-based cell-based high throughput dose response assay for inhibitors of insulin-degrading enzyme (IDE). [Related pubchem assays: 434962 (Primary screen (IDE inhibitors in singlicate)), 449730 (Counterscreen (Cytotoxicity in triplicate)), 435028 (Confirmation (IDE inhibitors in triplicate)), 434984 (Summary …; format: functional
# T1 sequence (P14735 whole entry): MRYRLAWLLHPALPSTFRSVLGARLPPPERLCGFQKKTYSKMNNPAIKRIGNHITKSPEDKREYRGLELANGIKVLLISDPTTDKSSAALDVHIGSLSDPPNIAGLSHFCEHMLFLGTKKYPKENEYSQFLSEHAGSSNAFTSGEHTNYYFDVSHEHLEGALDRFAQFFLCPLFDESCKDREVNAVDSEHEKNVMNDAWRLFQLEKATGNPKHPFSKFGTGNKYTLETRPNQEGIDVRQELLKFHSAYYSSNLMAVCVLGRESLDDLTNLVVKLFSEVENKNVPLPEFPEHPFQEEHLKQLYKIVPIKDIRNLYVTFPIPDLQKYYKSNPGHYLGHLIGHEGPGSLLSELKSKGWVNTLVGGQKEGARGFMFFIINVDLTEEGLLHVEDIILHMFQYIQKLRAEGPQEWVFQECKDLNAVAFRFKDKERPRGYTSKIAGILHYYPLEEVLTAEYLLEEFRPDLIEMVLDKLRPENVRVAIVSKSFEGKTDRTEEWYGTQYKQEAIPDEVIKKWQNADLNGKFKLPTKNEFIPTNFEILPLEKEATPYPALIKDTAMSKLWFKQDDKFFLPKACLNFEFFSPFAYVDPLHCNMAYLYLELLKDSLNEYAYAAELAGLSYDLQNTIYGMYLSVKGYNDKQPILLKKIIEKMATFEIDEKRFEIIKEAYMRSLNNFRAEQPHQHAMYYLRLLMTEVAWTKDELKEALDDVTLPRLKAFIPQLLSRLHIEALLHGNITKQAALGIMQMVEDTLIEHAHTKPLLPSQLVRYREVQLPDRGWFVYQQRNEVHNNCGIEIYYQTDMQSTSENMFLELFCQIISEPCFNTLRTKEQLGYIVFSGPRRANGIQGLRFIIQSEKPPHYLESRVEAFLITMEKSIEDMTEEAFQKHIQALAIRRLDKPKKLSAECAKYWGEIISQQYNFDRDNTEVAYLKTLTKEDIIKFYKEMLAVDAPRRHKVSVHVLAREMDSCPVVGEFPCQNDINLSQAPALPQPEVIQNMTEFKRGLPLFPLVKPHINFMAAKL
# [2] = molecular target: T2, DNA repair protein RAD52 homolog (Homo sapiens, UniProt P43351); format: functional, biochemical
# T2 sequence (P43351 whole entry): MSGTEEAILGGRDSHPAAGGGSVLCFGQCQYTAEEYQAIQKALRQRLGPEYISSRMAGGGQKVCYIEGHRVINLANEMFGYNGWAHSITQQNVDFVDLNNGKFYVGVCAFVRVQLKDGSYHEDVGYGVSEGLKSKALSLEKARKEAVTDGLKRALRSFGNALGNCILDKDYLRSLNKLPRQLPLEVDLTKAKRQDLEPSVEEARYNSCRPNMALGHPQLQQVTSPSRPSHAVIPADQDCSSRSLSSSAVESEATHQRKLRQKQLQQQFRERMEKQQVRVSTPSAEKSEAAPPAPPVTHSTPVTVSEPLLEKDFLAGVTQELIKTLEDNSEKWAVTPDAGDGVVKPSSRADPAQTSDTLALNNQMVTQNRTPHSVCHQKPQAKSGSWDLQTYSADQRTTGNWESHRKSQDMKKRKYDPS
# [3] = molecular target: T3, Heat shock factor protein 1 (Mus musculus, UniProt P38532); experiment: decrease of HSF1-responsive luciferase luminescence – cell-based, NIH3T3, dose retest, confirmation (AID 2382); format: functional;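 also: NIH3T3 fibroblasts with HSF1-driven luciferase reporter stressed by proteasome inhibitor MG132; luminescence from HSF1-driven luciferase expression after 8 hours of MG132 stress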
# T3 sequence (P38532 whole entry): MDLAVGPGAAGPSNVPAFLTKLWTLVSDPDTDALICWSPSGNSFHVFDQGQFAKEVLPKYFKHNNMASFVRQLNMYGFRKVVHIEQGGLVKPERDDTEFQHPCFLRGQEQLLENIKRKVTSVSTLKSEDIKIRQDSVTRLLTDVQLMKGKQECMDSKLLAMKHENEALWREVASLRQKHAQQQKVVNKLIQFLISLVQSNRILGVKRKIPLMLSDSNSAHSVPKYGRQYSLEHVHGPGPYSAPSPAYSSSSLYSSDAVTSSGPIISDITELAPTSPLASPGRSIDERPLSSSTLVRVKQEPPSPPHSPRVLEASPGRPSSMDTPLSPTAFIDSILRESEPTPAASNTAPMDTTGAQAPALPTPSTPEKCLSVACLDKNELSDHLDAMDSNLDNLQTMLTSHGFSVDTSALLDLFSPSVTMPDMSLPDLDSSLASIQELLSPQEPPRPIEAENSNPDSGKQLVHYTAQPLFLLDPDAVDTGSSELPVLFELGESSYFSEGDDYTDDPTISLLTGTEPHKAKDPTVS
# [4] = molecular target: Heat shock protein HSP 90-alpha (Homo sapiens, UniProt P07900); experiment: Luminescence-based dose response biochemical high throughput screening assay for inhibitors of the Heat Shock Protein 90 (HSP90). [Related pubchem assays: 1831 (Summary AID.), 1846 (Confirmation screen.), 1789 (Primary screen.)]
# [5] = HEK-293T cell viability reduction – luminescence, B-cell screen hits, cytotoxicity control for BCR NF-kB inhibitor project, dose response (AID 489021); format: functional, cell-based;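 also: HEK-293T cells carrying an NF-kB luciferase reporter; cells exposed to compound for about 14 hours before viability readout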
# [6] = molecular target: T4, Luciferin 4-monooxygenase (Photinus pyralis, UniProt P08659); experiment: Counter Screen for Luciferase-based Assay Positives. [Related pubchem assays: 620, 618, 411 ]
# T4 sequence (P08659 whole entry): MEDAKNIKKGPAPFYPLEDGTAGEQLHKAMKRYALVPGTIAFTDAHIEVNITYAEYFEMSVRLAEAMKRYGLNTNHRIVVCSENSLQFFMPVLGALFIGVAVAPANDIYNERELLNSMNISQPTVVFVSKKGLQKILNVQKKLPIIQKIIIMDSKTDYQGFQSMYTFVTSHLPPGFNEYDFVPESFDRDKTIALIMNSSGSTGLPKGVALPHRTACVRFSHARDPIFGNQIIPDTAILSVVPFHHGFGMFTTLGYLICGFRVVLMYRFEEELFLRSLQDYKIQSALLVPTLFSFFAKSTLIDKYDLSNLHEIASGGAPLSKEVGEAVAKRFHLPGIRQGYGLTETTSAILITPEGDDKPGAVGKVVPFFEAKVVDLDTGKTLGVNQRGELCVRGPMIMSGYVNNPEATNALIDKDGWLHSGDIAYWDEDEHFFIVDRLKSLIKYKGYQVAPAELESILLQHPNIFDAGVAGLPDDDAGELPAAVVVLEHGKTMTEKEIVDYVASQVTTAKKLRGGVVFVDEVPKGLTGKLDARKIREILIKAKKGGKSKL
# HEK293 [7] = experiment: PMA/Ionomycin induced NF-kB luciferase assay in 293- NF-kB-Luc stable cells. [Related pubchem assays: 1299, 1270, 1295, 1375, 1287, 1281, 1293, 1291, 1289, 1280, 465, 1364, 1282, 1372, 1365, 1370, 1367, 1366, 1269, 1373, 1292, 1290, 1302, 1371, 1283, 1271, 1294, 1374, 1368, 1369 ]; format: functional, cell-based; details: Homo sapiens
# [8] = molecular target: T4, Luciferin 4-monooxygenase; experiment: In vitro luciferase assay using purified luciferase. [Related pubchem assays: 1299, 1270, 1295, 1375, 1287, 1281, 1293, 1291, 1289, 1280, 465, 1364, 1282, 1372, 1365, 1370, 1367, 1366, 1266, 1373, 1292, 1290, 1302, 1371, 1283, 1271, 1294, 1374, 1368, 1369 ]
# [9] = molecular target: Glyceraldehyde-3-phosphate dehydrogenase (Homo sapiens, UniProt P04406)
# Glyceraldehyde-3-phosphate dehydrogenase, sequence (P04406 whole entry): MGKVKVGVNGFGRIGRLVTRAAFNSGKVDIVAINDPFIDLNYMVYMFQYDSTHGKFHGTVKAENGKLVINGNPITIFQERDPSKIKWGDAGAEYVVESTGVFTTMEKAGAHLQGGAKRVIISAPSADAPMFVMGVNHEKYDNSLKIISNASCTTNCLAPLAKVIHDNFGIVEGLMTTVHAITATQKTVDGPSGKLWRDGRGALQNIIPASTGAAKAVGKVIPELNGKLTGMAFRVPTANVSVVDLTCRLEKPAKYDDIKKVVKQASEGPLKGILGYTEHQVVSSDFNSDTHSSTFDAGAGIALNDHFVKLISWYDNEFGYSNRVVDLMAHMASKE
# HT-1080 = experiment: HT1080 cell viability loss – fluorescence readout (AID 620); format: functional, cell-based; details: Homo sapiens
# HEK293 [10] = experiment: Cytotoxicity assay in HEK293 cells. [Related pubchem assays (depositor defined):AID1266, AID1269, AID1270, AID1271, AID1280, AID1281, AID1282, AID1283, AID1287, AID1289, AID1290, AID1291, AID1292, AID1293, AID1294, AID1295, AID1299, AID1302, AID1364, AID1365, AID1366, AID1367, AID1369, AID1370, AID1371, AID1372, AID1373, AID1374, AID1375, AID1384 …; format: functional, cell-based; details: Homo sapiens
# [11] = blockers of HIV-1 envelope-mediated cell-cell fusion – cherry-pick, dose response (AID 652057); format: functional, cell-based
# [12] = off-target signal loss in HeLa-CEM21 co-culture – HeLa F-luc CTL cells, cherry-picked, counter-screen for HIV-1 Env fusion inhibitor project, dose response (AID 652040); format: functional, cell-based;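 also: potency for signal decrease marking cytotoxic or nonspecific inhibition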
# [13] = HIV-1 AD8 envelope cell-cell fusion blockers – cherry-pick, dose response (AID 652062); format: functional, cell-based;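 also: luciferase signal from cell-cell fusion driven by HIV-1 clade B AD8 Env; potency is for inhibitors of fusion seen as a drop in luminescence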
# [14] = molecular target: T5, Alkaline phosphatase, tissue-nonspecific isozyme (Homo sapiens, UniProt P05186)
# T5 sequence (P05186 whole entry): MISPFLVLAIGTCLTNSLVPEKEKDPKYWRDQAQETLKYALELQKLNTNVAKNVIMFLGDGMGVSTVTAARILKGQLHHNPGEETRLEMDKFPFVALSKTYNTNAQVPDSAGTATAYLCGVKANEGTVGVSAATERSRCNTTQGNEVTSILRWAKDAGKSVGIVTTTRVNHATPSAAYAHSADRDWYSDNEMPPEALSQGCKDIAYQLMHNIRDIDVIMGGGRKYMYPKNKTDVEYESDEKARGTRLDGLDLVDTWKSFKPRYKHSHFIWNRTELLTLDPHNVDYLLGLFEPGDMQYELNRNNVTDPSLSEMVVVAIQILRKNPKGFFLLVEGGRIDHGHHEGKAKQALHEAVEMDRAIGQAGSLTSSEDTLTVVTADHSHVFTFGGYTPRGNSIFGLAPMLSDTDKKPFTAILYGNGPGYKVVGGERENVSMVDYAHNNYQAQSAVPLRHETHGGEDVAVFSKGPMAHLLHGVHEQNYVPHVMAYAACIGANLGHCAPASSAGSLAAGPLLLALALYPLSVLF
# [15] = Trypanosoma cruzi growth suppression in host cells – NIH3T3 host cells, beta-gal luminescence, confirmation (AID 2044); format: functional, cell-based;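 also: intracellular parasites grown in NIH/3T3 mouse fibroblasts as host cells; luminescent beta-galactosidase reporter signal from transgenic T. cruzi replicating inside host cells; inhibitors lower the luminescence signal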
# [16] = NIH3T3 cell viability loss – ATP luminescence, mouse fibroblasts, counter-screen, dose response (AID 2010); format: functional, cell-based;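 also: cells exposed to compound for about 90 hours before reading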
# [17] = molecular target: Intestinal-type alkaline phosphatase (Homo sapiens, UniProt P09923); experiment: activation of human intestinal alkaline phosphatase – biochemical, dose response (AID 488873); format: functional
# Intestinal-type alkaline phosphatase (Homo sapiens, UniProt P09923), sequence (P09923 whole entry): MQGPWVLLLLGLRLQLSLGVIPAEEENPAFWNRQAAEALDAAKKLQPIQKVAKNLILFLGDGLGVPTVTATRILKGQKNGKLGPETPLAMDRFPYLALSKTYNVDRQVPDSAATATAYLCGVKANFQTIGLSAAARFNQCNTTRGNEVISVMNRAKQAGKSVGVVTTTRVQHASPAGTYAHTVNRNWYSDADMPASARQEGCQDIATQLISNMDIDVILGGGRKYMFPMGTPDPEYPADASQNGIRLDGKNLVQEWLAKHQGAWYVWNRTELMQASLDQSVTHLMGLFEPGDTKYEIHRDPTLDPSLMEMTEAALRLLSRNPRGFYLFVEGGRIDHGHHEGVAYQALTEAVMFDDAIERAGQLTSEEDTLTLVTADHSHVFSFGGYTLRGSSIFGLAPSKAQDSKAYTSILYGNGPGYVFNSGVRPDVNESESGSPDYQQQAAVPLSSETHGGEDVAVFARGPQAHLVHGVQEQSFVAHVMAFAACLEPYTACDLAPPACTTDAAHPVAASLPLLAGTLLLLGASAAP
# [18] = molecular target: Intestinal-type alkaline phosphatase (Mus musculus, UniProt P24822); experiment: PubChem AID 488785; format: functional
# Intestinal-type alkaline phosphatase (Mus musculus, UniProt P24822), sequence (P24822 whole entry): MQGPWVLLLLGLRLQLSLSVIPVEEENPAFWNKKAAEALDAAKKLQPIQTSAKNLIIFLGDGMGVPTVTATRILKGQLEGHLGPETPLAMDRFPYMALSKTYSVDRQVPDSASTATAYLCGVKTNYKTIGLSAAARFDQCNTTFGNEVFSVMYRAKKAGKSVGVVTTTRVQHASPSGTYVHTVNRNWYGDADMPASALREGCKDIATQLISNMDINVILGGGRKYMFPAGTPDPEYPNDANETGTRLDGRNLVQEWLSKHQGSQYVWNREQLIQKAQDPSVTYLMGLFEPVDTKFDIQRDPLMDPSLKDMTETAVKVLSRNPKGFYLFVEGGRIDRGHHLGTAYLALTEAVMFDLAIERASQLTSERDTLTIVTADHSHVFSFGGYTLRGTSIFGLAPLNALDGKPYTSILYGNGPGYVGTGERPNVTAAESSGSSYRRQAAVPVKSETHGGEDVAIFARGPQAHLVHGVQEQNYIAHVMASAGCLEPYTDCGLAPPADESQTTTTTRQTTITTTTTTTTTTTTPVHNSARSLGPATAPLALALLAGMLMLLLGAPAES
# [19] = molecular target: T5, Alkaline phosphatase, tissue-nonspecific isozyme; experiment: TNAP enzyme inhibition by screening hits, dose response, selectivity assay for mouse IAP inhibitor project, biochemical, human TNAP, uHTS hits (AID 488906); format: functional
smiles,measurement,setting,value
CCOC(=O)c1c(C)n(Cc2ccccc2)c2ccc(OCC(O)CNC(C)(C)C)cc12 (stereo unspecified),IC50,[1],14.5 µM (not active)
same,IC50,Insulin-degrading enzyme,> 55.9 µM (not active)
same,AC50,[2],22 µM (active)
Cc1ccc(/C=C2\SC(=S)N(CCCC(=O)Nc3ccccn3)C2=O)cc1,EC50,[3],1.51 µM (active)
same,IC50,[4],17.8 µM (not active)
same,IC50,[5],> 80 µM (inactive)
O=C(c1ccc(Cl)cc1)N1CCCCC(Sc2nnc(-c3ccc4c(c3)OCO4)o2)C1=O (stereo unspecified),EC50,[6],4.07 µM (active)
same,EC50,HEK293 [7],4.25 µM (not active)
same,EC50,[8],> 8 µM (not active)
same,IC50,[9],> 100 µM (not active)
same,EC50,HT-1080,> 50 µM (not active)
same,EC50,HEK293 [10],2.19 µM (active)
same,AC50,[11],2.78 µM (active)
same,AC50,[12],13.5 µM (active)
same,AC50,[13],5.75 µM (active)
CC(C)c1ccc(NC(=O)NC2CCN(CC(=O)Nc3cccc4ccccc34)CC2)cc1,EC50,[14],> 100 µM (not active)
same,EC50,[15],1.88 µM (active)
same,EC50,[16],> 60 µM (inconclusive)
same,EC50,[17],> 100 µM (inactive)
same,IC50,[18],10.8 µM (active)
same,IC50,[19],59.3 µM (active)
